Results reported in patent US20250320246A1, “3-AZASTEROID COMPOUNDS FOR THE TREATMENT OF DISEASES RELATED TO MITROCHONDRIAL FUNCTION” (NZP UK LIMITED, priority 2022, published 2025).

Columns and labels:
[1] = tested on: sporadic PD patient fibroblasts; assay: Mitochondrial membrane potential (MMP, TMRM) in sporadic PD patient fibroblasts; format: cell-based, human; conditions: Homo sapiens, Fibroblast, 24 h, 3 sporadic PD patient fibroblasts
[2] = tested on: iNeurons from sPD patients; assay: Mitochondrial membrane potential (MMP) in iNeurons from sPD patients; format: cell-based, human
Description: The fibroblasts lines and iNPC lines have previously been characterised and published in Carling et al, 2020.
Briefly, iNPCs are plated in a 6-well plate and cultured for 2 days in DMEM/F-12 medium with Glutamax™ supplemented with 1% NEAA, 2% B27 (Gibco) and 2.5 μM of DAPT. On day 3, DAPT is removed and the medium is supplemented with 1 μM smoothened agonist (SAG) and FGF8 (75 ng/ml) for additional 10 days. Neurons are replated at this stage. Subsequently SAG and FGF8 are withdrawn and replaced with BDNF (30 ng/ml), GDNF (30 ng/ml), TGF-b3 ([…]) and dcAMP (2 mM, Sigma) for 15 days, as previously described Schwartzentruber et al, 2020 and Carling et al, 2020. Dopaminergic neurons were treated with compounds at concentrations of 0.1 nM, 1 nM, 3 nM, 10 nM, 30 nM and 100 nM dosing every 3 days for the last 12 days of differentiation.
iNeurons were treated every 3 days for the last 12 days of the differentiation protocol. Cells are plated in 96 well plates; for live imaging cells are incubated for one hour at 37° C. with 80 nM tetramethlyrhodamine (TMRM), 1 μM LysoTracker® Green (Invitrogen) and Hoechst Stain solution (Sigma) at 1 μM before imaging using Opera Phenix™. Cellular ATP measurements are undertaken using ATPlite kit (Perkin Elmer) as per manufacturer's instructions. Mitochondrial reactive oxygen species generation was assessed using mitochondrial NpFR2 (probe; a kind gift from Dr Liz New, University of Sydney, Australia) at 20 μM and Hoechst stain solution at 1 μM for 30 mins at 37° C., then the dyes are removed and cells images using Opera Phenix™. Images generated from the live imaging experiments were analysed using Harmony® (Perkin Elmer software). We developed protocols in order to segment nucleus, cell boundary and processes, mitochondria, lysosomes, autophagosomes. We only analysed the z projection images collected from the z stacks.

[3] = tested on: mitochondrial respiratory chain complex I; assay: Complex I assay in mouse whole brain homogenate after IV dosing; format: in vivo; conditions: wild type mouse, 2 mg/kg IV
Description: Ex vivo mice brain was homogenated in a buffer of 250 mM sucrose, 20 mM HEPES, 3 mM EDTA, pH 7.5 at 4° C. Homogenisation was carried out using a Dounce homogenizer, for cortex samples, and by repetitive passage through a 0.5 mm syringe for isolated striatum. Samples were then incubated with 30 μl of detergent from the AbCam colorimetric Complex I assay kit on ice for 20 minutes. Samples are then centrifuged at 13,000 rpm for 30 mins. Triplicate samples per condition were blocked using the kit blocking buffer on the AbCam colorimetric Complex I assay kit plate for 3 hours. Samples are then washed using the kit wash buffer 3 times before the addition of the kit assay buffer containing NADH and colorimetric dye. The assay plate is read on a plate reader in a kinetic assay programme reading 450 nm in a 30 second interval for 50 minutes.
By 12 hours post injection complex I activity began to reduce again and was elevated by 98% above control. By 24 hours post injection, complex I activity was still elevated by 35% above control levels.

Q: What does the source list for `C[C@H](CCCC(=O)O)[C@H]1CC[C@H]2[C@@H]3[C@@H](O)C[C@@H]4CNCC[C@]4(C)[C@H]3CC[C@]12C.Cl` [Compound 28b, 3-Aza-7β-hydroxy-25-homo-5β-cholan-25-oic acid hydrochloride]?
A: EC50 ([1]; 8-point range 0.06 nM-300 nM): 4.03 nM; Emax ([1]; max response with highest dose of compound (300 nM), read-out: MMP % of vehicle, top %): 101%; activity at 60 pM ([1]; max response with lowest dose of compound (0.06 nM), read-out: MMP % of vehicle, bottom %): 92.8%; EC50 ([2]; Homo sapiens, sPD patient iNeurons, dosing every 3 days for last 12 days of differentiation): 8.2 nM; MMP normalisation (% of controls) ([2]; sPD patient iNeurons treated, untreated sPD patients 52): 76 % of controls; complex I activity ([3]; 4 and 8 hours post injection): remained elevated to a similar extent; complex I activity increase ([3]; 1 hour after dosing): 125%; complex I activity elevated above control ([3]; 12 hours post injection): 98%; complex I activity elevated above control levels ([3]; 24 hours post injection): 35%
